Structures are written as SMILES. Several values for one entry are separate records, joined by “and”; a condition that tells them apart may be missing. Equal entries are not always repeated. Toxic doses and inconclusive results are not listed.

Data on 16 molecules can be found in PubChem BioAssay AID334 (DTP/NCI, 2004).

This assay deals with CD2F1 mice, intracerebral P388 leukemia, median survival T/C%. As to the kind of experiment: NCI In Vivo Anticancer Drug Screen. Data for tumor model P388 Leukemia (intracerebral) in CD2F1 (CDF1) mice. The conditions noted are these: endpoint: median survival time, higher = longer survival. On the procedure: The antitumor activity of compounds was measured in mice bearing transplantable tumors. Survival or tumor size were measured and the results are expressed as the measurement made in the treated group (T) divided by the measurement made in the vehicle treated control group (C). The tumor model used in this assay is P388 Leukemia (intracerebral) in CD2F1 (CDF1) mice

[1] abbreviates: dose: 25.0 mg/kg/injection, schedule: Q01DX009 (ip), vehicle: saline.
Setting [2] is: dose: 50.0 mg/kg/injection, schedule: Q01DX009 (ip), vehicle: saline.
Setting [3] is: dose: 100.0 mg/kg/injection, schedule: Q01DX009 (ip), vehicle: saline.
[4] abbreviates: dose: 12.5 mg/kg/injection, schedule: Q01DX009 (ip), vehicle: saline.

For the molecule `NC(C/[N+]([O-])=N/O)C(=O)O` (stereo not given), the T/C runs as follows: (dose: 7.02 mg/kg/injection, schedule: Q01DX009 (ip), vehicle: saline with Tween-80) 90 % of control; (dose: 7.02 mg/kg/injection, schedule: Q01DX009 (ip), vehicle: saline) 110 % of control; (dose: 14.06 mg/kg/injection, schedule: Q01DX009 (ip), vehicle: saline with Tween-80) 98 % of control; (dose: 14.06 mg/kg/injection, schedule: Q01DX009 (ip), vehicle: saline) 99 % of control; (dose: 28.12 mg/kg/injection, schedule: Q01DX009 (ip), vehicle: saline with Tween-80) 95 % of control; (dose: 28.12 mg/kg/injection, schedule: Q01DX009 (ip), vehicle: saline) 108 % of control. The T/C reads like this: (dose: 56.25 mg/kg/injection, schedule: Q01DX009 (ip), vehicle: saline with Tween-80) 106 % of control; (dose: 56.25 mg/kg/injection, schedule: Q01DX009 (ip), vehicle: saline) 108 % of control and 112 % of control; (dose: 112.5 mg/kg/injection, schedule: Q01DX009 (ip), vehicle: saline with Tween-80) 96 % of control.

As to `CCCCCCC(=O)O[C@H]1CC[C@H]2[C@@H]3CCC4=CC(=O)CC[C@]4(C)[C@H]3CC[C@]12C`, the T/C reads like this: (dose: 8.0 mg/kg/injection, schedule: Q01DX009 (ip), vehicle: saline + alcohol) 122 % of control and 103 % of control; (dose: 16.0 mg/kg/injection, schedule: Q01DX009 (ip), vehicle: saline + alcohol) 118 % of control and 105 % of control; (dose: 32.0 mg/kg/injection, schedule: Q01DX009 (ip), vehicle: saline + alcohol) 120 % of control and 102 % of control; (dose: 64.0 mg/kg/injection, schedule: Q01DX009 (ip), vehicle: saline + alcohol) 114 % of control and 100 % of control; (dose: 128.0 mg/kg/injection, schedule: Q01DX009 (ip), vehicle: saline + alcohol) 118 % of control and 112 % of control.

On to `O=C1c2c(O)ccc(O)c2C(=O)c2c(NCCNCCO)ccc(NCCNCCO)c21`, for which the T/C is, setting by setting: (dose: 0.5 mg/kg/injection, schedule: Q01DX009 (ip), vehicle: saline with Tween-80) 100 % of control; (dose: 1.0 mg/kg/injection, schedule: Q01DX009 (ip), vehicle: saline with Tween-80) 105 % of control; (dose: 2.0 mg/kg/injection, schedule: Q01DX009 (ip), vehicle: saline with Tween-80) 106 % of control.

Turning to `CC1(C)N=C(N)N=C(N)N1c1ccc(OCC(=O)N2CCOCC2)c(Cl)c1`, the T/C under setting [1] was 88 % of control, the T/C under setting [2] is 111 % of control and the T/C under setting [3] was 100 % of control.

In the case of `C[C@]1(O)CC[C@H]2[C@@H]3CCC4=CC(=O)CC[C@]4(C)[C@@]3(F)[C@@H](O)C[C@@]21C`, the T/C (dose: 8.0 mg/kg/injection, schedule: Q01DX009 (ip), vehicle: saline with Tween-80) was 100 % of control and 105 % of control; the T/C (dose: 16.0 mg/kg/injection, schedule: Q01DX009 (ip), vehicle: saline with Tween-80) is 91 % of control and 109 % of control; the T/C (dose: 32.0 mg/kg/injection, schedule: Q01DX009 (ip), vehicle: saline with Tween-80) is 96 % of control and 106 % of control; the T/C (dose: 64.0 mg/kg/injection, schedule: Q01DX009 (ip), vehicle: saline with Tween-80) is 95 % of control and 104 % of control; the T/C (dose: 128.0 mg/kg/injection, schedule: Q01DX009 (ip), vehicle: saline with Tween-80) was 91 % of control and 104 % of control; the T/C (dose: 256.0 mg/kg/injection, schedule: Q01DX009 (ip), vehicle: saline with Tween-80) is 96 % of control and 106 % of control. Further, for the setting “dose: 512.0 mg/kg/injection, schedule: Q01DX009 (ip), vehicle: saline with Tween-80”, the T/C is 89 % of control and 104 % of control.

On to `COc1cc(NC(=O)CN(CCCl)CCCl)cc(OC)c1OC`, for which the T/C was 113 % of control and 102 % of control (dose: 12.5 mg/kg/injection, schedule: Q01DX009 (ip), vehicle: saline with Tween-80); 104 % of control and 107 % of control (dose: 25.0 mg/kg/injection, schedule: Q01DX009 (ip), vehicle: saline with Tween-80); 114 % of control and 118 % of control (dose: 50.0 mg/kg/injection, schedule: Q01DX009 (ip), vehicle: saline with Tween-80); 114 % of control (dose: 100.0 mg/kg/injection, schedule: Q01DX009 (ip), vehicle: saline with Tween-80); 87 % of control (dose: 200.0 mg/kg/injection, schedule: Q01DX009 (ip), vehicle: saline with Tween-80).

`CCN(C)N=Nc1ccc(C(N)=O)cc1`: the T/C is, setting by setting: (dose: 25.0 mg/kg/injection, schedule: Q01DX009 (ip), vehicle: Klucel (hydroxypropylcellulose) (HPC)) 101 % of control; (dose: 100.0 mg/kg/injection, schedule: Q01DX009 (ip), vehicle: Klucel (hydroxypropylcellulose) (HPC)) 154 % of control.

For the molecule `N[C@@H](Cc1ccc(N(CCCl)CCCl)cc1)C(=O)O`, the T/C (dose: 0.25 mg/kg/injection, schedule: Q03HX008 (ip), vehicle: saline) is 105 % of control and the T/C (dose: 0.5 mg/kg/injection, schedule: Q03HX008 (ip), vehicle: saline) is 115 % of control.

For the molecule `CC[C@H]1CN2CCc3cc(OC)c(OC)cc3[C@@H]2C[C@@H]1C[C@H]1NCCc2cc(OC)c(OC)cc21`, the T/C is, setting by setting: (dose: 2.0 mg/kg/injection, schedule: Q01DX005 (ip), vehicle: Klucel (hydroxypropylcellulose) (HPC)) 113 % of control and 99 % of control; (dose: 4.0 mg/kg/injection, schedule: Q01DX005 (ip), vehicle: Klucel (hydroxypropylcellulose) (HPC)) 94 % of control and 100 % of control; (dose: 8.0 mg/kg/injection, schedule: Q01DX005 (ip), vehicle: Klucel (hydroxypropylcellulose) (HPC)) 119 % of control and 100 % of control.

For `COc1cc(C[C@H]2c3cc(OC)c(OC)cc3CCN2C)c(Oc2cc3c(cc2OC)-c2c(OC)c(OC)cc4c2[C@H](C3)N(C)CC4)cc1OC`, the T/C is 102 % of control and 106 % of control and 107 % of control (dose: 50.0 mg/kg/injection, schedule: Q01DX005 (ip), vehicle: Klucel (hydroxypropylcellulose) (HPC)); 96 % of control and 101 % of control and 104 % of control (dose: 200.0 mg/kg/injection, schedule: Q01DX005 (ip), vehicle: Klucel (hydroxypropylcellulose) (HPC)).

`Nc1ncnc2c1ncn2C1OC(COP(=O)(O)O)C(O)C1O` (stereo not given): the T/C by setting is: under setting [2], 97 % of control; (dose: 1600.0 mg/kg/injection, schedule: Q01DX009 (ip), vehicle: saline) 100 % of control and 104 % of control.

Take `CN(C)c1nc(N(C)C)nc(N(C)C)n1`: the T/C was 104 % of control (dose: 100.0 mg/kg/injection, schedule: Q01DX005 (ip), vehicle: saline with Tween-80); 100 % of control (dose: 100.0 mg/kg/injection, schedule: Q01DX005 (ip), vehicle: suspension in saline); 111 % of control (dose: 200.0 mg/kg/injection, schedule: Q01DX005 (ip), vehicle: saline with Tween-80); 107 % of control (dose: 200.0 mg/kg/injection, schedule: Q01DX005 (ip), vehicle: suspension in saline); 111 % of control (dose: 400.0 mg/kg/injection, schedule: Q01DX005 (ip), vehicle: saline with Tween-80); 89 % of control (dose: 400.0 mg/kg/injection, schedule: Q01DX005 (ip), vehicle: suspension in saline).

As for `Nc1nc2c(c(=O)[nH]1)N(C=O)C(CNc1ccc(C(=O)N[C@@H](CCC(=O)O)C(=O)O)cc1)CN2` (stereo not given in full), the T/C (dose: 128.0 mg/kg/injection, schedule: Q01DX005 (ip), vehicle: suspension in saline) is 98 % of control; the T/C (dose: 256.0 mg/kg/injection, schedule: Q01DX005 (ip), vehicle: suspension in saline) was 97 % of control; the T/C (dose: 512.0 mg/kg/injection, schedule: Q01DX005 (ip), vehicle: suspension in saline) is 100 % of control.

Consider `COc1cc2c(c3c1c(=O)c1ccccc1n3C)C=CC(C)(C)O2`, for which the T/C reads like this: (dose: 128.0 mg/kg/injection, schedule: Q01DX005 (ip), vehicle: Klucel (hydroxypropylcellulose) (HPC)) 107 % of control; (dose: 256.0 mg/kg/injection, schedule: Q01DX005 (ip), vehicle: Klucel (hydroxypropylcellulose) (HPC)) 112 % of control; (dose: 512.0 mg/kg/injection, schedule: Q01DX005 (ip), vehicle: Klucel (hydroxypropylcellulose) (HPC)) 113 % of control.

As to `NC(=O)c1csc(C2OC(CO)C(O)C2O)n1` (stereo not given), the T/C is, setting by setting: under setting [4], 105 % of control; under setting [1], 121 % of control; under setting [2], 110 % of control; under setting [3], 119 % of control; (dose: 200.0 mg/kg/injection, schedule: Q01DX009 (ip), vehicle: saline) 121 % of control; (dose: 800.0 mg/kg/injection, schedule: Q01DX009 (ip), vehicle: saline) 93 % of control.

On to `CC1(C)N=C(N)N=C(N)N1c1ccc(CCC(=O)Nc2ccc(S(=O)(=O)F)cc2)c(Cl)c1`, for which the T/C reads like this: (dose: 6.25 mg/kg/injection, schedule: Q01DX009 (ip), vehicle: saline) 100 % of control; under setting [4], 111 % of control; under setting [1], 105 % of control; under setting [2], 105 % of control.
